Source: ChEMBL document CHEMBL1201862, “PubChem BioAssay data set” (2004)
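In this assay, cells in 96-well plates receive the compound at five concentrations for 48 hours. Endpoints are linearly interpolated between the surrounding concentrations. GI50 is the concentration that inhibits growth by half.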 The source made the active and inactive calls. Cut-off read from the data, not from the text of the source: active = GI50 up to about 1.1 µM and inactive = higher.

Legend:
Assay in all cases: NCI anticancer screen, dose series, 48 h
IGROV-1 = tested on: IGROV-1
SK-MEL-2 = tested on: SK-MEL-2
ACHN = tested on: ACHN
MDA-MB-231 = tested on: MDA-MB-231
HOP-92 = tested on: HOP-92
HCT-116 = tested on: HCT-116
SW-620 = tested on: SW-620
SNB-19 = tested on: SNB-19
A498 = tested on: A498
M14 = tested on: M14
K562 = tested on: K562
HCT-15 = tested on: HCT-15
NCI-H226 = tested on: NCI-H226
U-251 = tested on: U-251
PC-3 = tested on: PC-3
UO-31 = tested on: UO-31
Hs-578T = tested on: Hs-578T
CCRF-CEM = tested on: CCRF-CEM
MCF7 = tested on: MCF7
LOX IMVI = tested on: LOX IMVI
786-0 = tested on: 786-0
BT-549 = tested on: BT-549
SN12C = tested on: SN12C
MOLT-4 = tested on: MOLT-4
NCI-H460 = tested on: NCI-H460
NCI-H23 = tested on: NCI-H23
MDA-N = tested on: MDA-N
HL-60 = tested on: HL-60
SNB-75 = tested on: SNB-75
SF-268 = tested on: SF-268
SR = tested on: SR
HT-29 = tested on: HT-29
Malme-3M = tested on: Malme-3M
OVCAR-8 = tested on: OVCAR-8
TK-10 = tested on: TK-10
MDA-MB-435 = tested on: MDA-MB-435
RXF 393 = tested on: RXF 393
SF-539 = tested on: SF-539
SF-295 = tested on: SF-295
RPMI-8226 = tested on: RPMI-8226
OVCAR-5 = tested on: OVCAR-5
SK-OV-3 = tested on: SK-OV-3
SK-MEL-5 = tested on: SK-MEL-5
SK-MEL-28 = tested on: SK-MEL-28
HOP-62 = tested on: HOP-62
HCC 2998 = tested on: HCC 2998
UACC-257 = tested on: UACC-257
OVCAR-4 = tested on: OVCAR-4
NCI/ADR-RES = tested on: NCI/ADR-RES
EKVX = tested on: EKVX
A549 = tested on: A549
UACC-62 = tested on: UACC-62
CAKI-1 = tested on: CAKI-1
NCI-H522 = tested on: NCI-H522
T47D = tested on: T47D
OVCAR-3 = tested on: OVCAR-3
KM12 = tested on: KM12
DU-145 = tested on: DU-145
COLO 205 = tested on: COLO 205

Cc1cc(Cl)ccc1NC(=O)/C(Cc1nc2ccc(C(=O)c3ccccc3)cc2nc1O)=N/NC(=O)c1ccncc1
GI50 (IGROV-1): > 100 µM (inactive) | GI50 (SK-MEL-2): > 100 µM (inactive) | GI50 (ACHN): > 100 µM (inactive) | GI50 (MDA-MB-231): > 100 µM (inactive) | GI50 (HOP-92): > 100 µM (inactive) | GI50 (HCT-116): 50.6 µM (inactive) | GI50 (SW-620): > 100 µM (inactive) | GI50 (SNB-19): > 100 µM (inactive) | GI50 (A498): > 100 µM (inactive) | GI50 (M14): > 100 µM (inactive) | GI50 (K562): 63.7 µM (inactive) | GI50 (HCT-15): 92 µM | GI50 (NCI-H226): 1.72 µM (inactive) | GI50 (U-251): > 100 µM (inactive) | GI50 (PC-3): > 100 µM (inactive) | GI50 (UO-31): 53.8 µM (inactive) | GI50 (Hs-578T): > 100 µM (inactive) | GI50 (CCRF-CEM): > 100 µM (inactive) | GI50 (MCF7): > 100 µM (inactive) | GI50 (LOX IMVI): > 100 µM (inactive) | GI50 (786-0): > 100 µM (inactive) | GI50 (BT-549): > 100 µM (inactive) | GI50 (SN12C): > 100 µM (inactive) | GI50 (MOLT-4): 64.3 µM (inactive) | GI50 (NCI-H460): > 100 µM (inactive) | GI50 (NCI-H23): > 100 µM (inactive) | GI50 (MDA-N): 97.3 µM (inactive) | GI50 (HL-60): 95.9 µM (inactive) | GI50 (SNB-75): > 100 µM (inactive) | GI50 (SF-268): > 100 µM (inactive) | GI50 (SR): 21.7 µM (inactive) | GI50 (HT-29): > 100 µM (inactive) | GI50 (Malme-3M): > 100 µM (inactive) | GI50 (OVCAR-8): > 100 µM (inactive) | GI50 (TK-10): > 100 µM (inactive) | GI50 (MDA-MB-435): 42.4 µM (inactive) | GI50 (RXF 393): > 100 µM (inactive) | GI50 (SF-539): > 100 µM (inactive) | GI50 (SF-295): > 100 µM (inactive) | GI50 (RPMI-8226): > 100 µM (inactive) | GI50 (OVCAR-5): > 100 µM (inactive) | GI50 (SK-OV-3): > 100 µM (inactive) | GI50 (SK-MEL-5): 92 µM (inactive) | GI50 (SK-MEL-28): > 100 µM (inactive) | GI50 (HOP-62): > 100 µM (inactive) | GI50 (HCC 2998): > 100 µM (inactive) | GI50 (UACC-257): > 100 µM (inactive) | GI50 (OVCAR-4): > 100 µM (inactive) | GI50 (NCI/ADR-RES): > 100 µM (inactive) | GI50 (EKVX): > 100 µM (inactive) | GI50 (A549): > 100 µM (inactive) | GI50 (UACC-62): 97.3 µM (inactive) | GI50 (CAKI-1): > 100 µM (inactive) | GI50 (NCI-H522): > 100 µM (inactive) | GI50 (T47D): > 100 µM (inactive) | GI50 (OVCAR-3): > 100 µM (inactive) | GI50 (KM12): 39.1 µM (inactive)

O=C1c2[nH]c3ccccc3c2CCN2CCCCC12 (stereo not drawn)
GI50 (IGROV-1): 20.2 µM (inactive) | GI50 (SK-MEL-2): 18.5 µM (inactive) | GI50 (ACHN): 21.9 µM (inactive) | GI50 (MDA-MB-231): 19.2 µM (inactive) | GI50 (HOP-92): 18.5 µM (inactive) | GI50 (HCT-116): 23.6 µM (inactive) | GI50 (SW-620): 26.1 µM (inactive) | GI50 (SNB-19): 24.9 µM (inactive) | GI50 (A498): 29.6 µM (inactive) | GI50 (M14): 17.9 µM (inactive) | GI50 (K562): 23.2 µM (inactive) | GI50 (HCT-15): 31.9 µM | GI50 (DU-145): 36.4 µM (inactive) | GI50 (NCI-H226): 27.8 µM (inactive) | GI50 (U-251): 18.8 µM (inactive) | GI50 (PC-3): 18.8 µM (inactive) | GI50 (Hs-578T): 28 µM (inactive) | GI50 (CCRF-CEM): 22.6 µM (inactive) | GI50 (MCF7): 32.1 µM (inactive) | GI50 (LOX IMVI): 22.3 µM (inactive) | GI50 (786-0): 24 µM (inactive) | GI50 (BT-549): 27.6 µM (inactive) | GI50 (SN12C): 35.6 µM (inactive) | GI50 (MOLT-4): 17.3 µM (inactive) | GI50 (NCI-H460): 26.6 µM (inactive) | GI50 (NCI-H23): 21.8 µM (inactive) | GI50 (MDA-N): 19.1 µM (inactive) | GI50 (HL-60): 1.8 µM (inactive) | GI50 (SNB-75): 28.5 µM (inactive) | GI50 (SF-268): 33.8 µM (inactive) | GI50 (HT-29): 34.1 µM (inactive) | GI50 (Malme-3M): 25.6 µM (inactive) | GI50 (OVCAR-8): 25.2 µM (inactive) | GI50 (TK-10): 27 µM (inactive) | GI50 (MDA-MB-435): 16.7 µM (inactive) | GI50 (RXF 393): 24.9 µM (inactive) | GI50 (SF-539): 21.1 µM (inactive) | GI50 (SF-295): 25.1 µM (inactive) | GI50 (RPMI-8226): 17.7 µM (inactive) | GI50 (OVCAR-5): 21.6 µM (inactive) | GI50 (SK-OV-3): 31.1 µM (inactive) | GI50 (SK-MEL-28): 37.4 µM (inactive) | GI50 (COLO 205): 18.7 µM (inactive) | GI50 (HOP-62): 29.3 µM (inactive) | GI50 (HCC 2998): 17.2 µM (inactive) | GI50 (UACC-257): 17.7 µM (inactive) | GI50 (OVCAR-4): 27.5 µM (inactive) | GI50 (NCI/ADR-RES): 22.8 µM (inactive) | GI50 (EKVX): 23.4 µM (inactive) | GI50 (A549): 24.9 µM (inactive) | GI50 (UACC-62): 18.8 µM (inactive) | GI50 (CAKI-1): 38.2 µM (inactive) | GI50 (NCI-H522): 20.3 µM (inactive) | GI50 (T47D): 25.7 µM (inactive) | GI50 (OVCAR-3): 19.7 µM (inactive) | GI50 (KM12): 17.7 µM (inactive)
